Measured values as given in PubChem BioAssay AID504520 (The Scripps Research Institute Molecular Screening Center, 2011).
Activity calls are given as the source filed them. No rule for the calls is given here.

Legend:
Test in all cases: LYPLA1 inhibition and serine hydrolase selectivity, late-stage follow-up, fluorescence, gel-based ABPP, mouse proteome (AID 504520);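 also: soluble proteome from BW5147 murine T cells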
Details in all cases: FP-rhodamine fluorescence, stronger effect = higher value
ABHD11 = test system: ABHD11
ESD = test system: ESD
LYPLA1 = test system: LYPLA1
LYPLA2 = test system: LYPLA2
[1] = target: Platelet-activating factor acetylhydrolase 2, cytoplasmic (Mus musculus) (UniProt Q8VDG7)
Chain of Platelet-activating factor acetylhydrolase 2, cytoplasmic (Mus musculus) (Q8VDG7 whole entry, looked up): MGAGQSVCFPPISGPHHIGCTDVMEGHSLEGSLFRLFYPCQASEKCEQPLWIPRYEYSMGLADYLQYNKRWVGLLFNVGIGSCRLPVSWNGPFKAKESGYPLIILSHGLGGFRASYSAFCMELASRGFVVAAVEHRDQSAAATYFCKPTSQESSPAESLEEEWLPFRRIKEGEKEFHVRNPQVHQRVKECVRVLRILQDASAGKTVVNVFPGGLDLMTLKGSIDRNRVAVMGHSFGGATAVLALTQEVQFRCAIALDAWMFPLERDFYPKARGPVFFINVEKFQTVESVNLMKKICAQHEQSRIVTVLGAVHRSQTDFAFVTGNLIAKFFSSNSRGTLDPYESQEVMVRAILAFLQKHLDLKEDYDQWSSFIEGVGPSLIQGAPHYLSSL

SMILES | inhibition (ABHD11; at 0.75 µM) | inhibition (ABHD11; inhibition, at 0.03 µM) [%] | inhibition (ABHD11; inhibition, at 0.15 µM) [%] | inhibition (ESD; at 0.75 µM) | inhibition (ESD; inhibition, at 0.03 µM) [%] | inhibition (ESD; inhibition, at 0.15 µM) [%] | inhibition (LYPLA1; at 0.75 µM) | inhibition (LYPLA1; inhibition, at 0.03 µM) [%] | inhibition (LYPLA1; inhibition, at 0.15 µM) [%] | inhibition (LYPLA2; at 0.75 µM) | inhibition (LYPLA2; inhibition, at 0.03 µM) [%] | inhibition (LYPLA2; inhibition, at 0.15 µM) [%] | inhibition ([1]; PAFAH2, at 0.75 µM) | inhibition ([1]; PAFAH2, inhibition, at 0.03 µM) [%] | inhibition ([1]; PAFAH2, inhibition, at 0.15 µM) [%]
O=C(N(c1ccccc1)c1ccc(Br)cc1)n1ncc(C(O)(c2ccccc2)c2ccccc2)n1 | 100% | 0 | 100 | 0% (inactive) | 0 | 0 | 0% (inactive) | 0 | 0 | 0% (inactive) | 0 | 0 | 0% (inactive) | 0 | 0
O=C(N(c1ccccc1)c1ccccc1)n1ncc(C(O)(c2ccccc2)c2ccccc2)n1 | 0% (inactive) | 0 | 0 | 0% (inactive) | 0 | 0 | 0% (inactive) | 0 | 0 | 0% (inactive) | 0 | 0 | 25% (inactive) | 0 | 0
CC1CCN(C(=O)n2ncc(C(O)(c3ccccc3)c3ccccc3)n2)CC1 | 100% | 100 | 100 | 0% (inactive) | 0 | 0 | 100% | 50 | 100 | 50% (inactive) | 0 | 0 | 25% (inactive) | 0 | 0
COCC1CCCCN1C(=O)n1ncc(C(O)(c2ccccc2)c2ccccc2)n1 (stereo not given) | 100% | 100 | 100 | 0% (inactive) | 0 | 0 | 0% (inactive) | 0 | 0 | 0% (inactive) | 0 | 0 | 0% (inactive) | 0 | 0
O=C(N(c1ccccc1)c1ccccc1)n1ncc(-c2ccc(-c3ccccc3)cc2)n1 | 0% (inactive) | 0 | 0 | 0% (inactive) | 0 | 0 | 0% (inactive) | 0 | 0 | 0% (inactive) | 0 | 0 | 75% (inactive) | 0 | 0
O=C(OC(c1ccccc1)c1cnn(C(=O)N2CCCCC2)n1)N1CCCCC1 (stereo not given) | 100% | 100 | 100 | 50% (inactive) | 0 | 25 | 100% | 100 | 100 | 25% (inactive) | 0 | 0 | 100% | 0 | 100
COC1CCN(C(=O)n2ncc(C(O)(c3ccccc3)c3ccccc3)n2)CC1 | 100% | 100 | 100 | 25% (inactive) | 0 | 0 | 100% | 0 | 50 | 25% (inactive) | 0 | 0 | 0% (inactive) | 0 | 0
